Data set [1] in a line: phenyl-1,4-benzoquinone (PBQ) induced writhing test (analgesic effect). It is filed as in vivo, KTC-ICR rats. Conditions: Mus musculus. As for the experimental part: (§1) The physiological activities of the compounds of the present invention prepared according to Example 1 to 6 were measured by employing acetic acid or phenyl-1,4-benzoquinone (PBQ) induced writhing test method.
(§2) In case of the acetic acid-induced writhing test, KTC-ICR […] (available from animal laboratory of Korea Research Institute of Chemical Technology) each having a body weight of 20-25 g were used, while in the PBQ induced writhing test, KTC-ICR […] each having a body weight of 14-18 g were employed. A group consisting of 8 mice which had been adjusted to the testing environment for a week were used in determining the effects of each dosage of a test compound. Water and food were given frelly and illumination was maintained on a 12-hour cycle.
(§3) Test solutions were prepared by dissolving one of the final products obtained in Examples 1 to 6 in distilled water containing 1% of Tween and 5% ethanol in a pre-determined concentration. The test solutions were used after serial dilution depending on each dosage.
(§4) The test solutions were […] administered in a dose of 0.1 ml per 10 g of a body weight. 0.1 ml of 1% acetic acid solution or 0.1 ml of 0.02% PBQ solution was administered […] or after 30 minutes in case of subcutaneous injection.
(§5) Then, the number of writhings generated during a period of 10 minutes after 3 minutes from the administration of acetic acid was measured. in case of the administration of PBQ, the number of writhings generated during a period of 5 minutes after 5 minutes from the administration was measured.
(§6) For a comparison purpose, initially, distilled water containing 1% of Tween and 5% ethanol alone was administered to the control group. Then, the control groups were subjeted the same procedure as the test groups.
(§7) The number of writhings suffered by the test group was compared with that of the control group; and the analgesic effect was measured in terms of the percentage of inhibition of writhing (I.W.). [formula] wherein: A is the number of writhings suffered by the control group; and
(§8) B is the number of writhings suffered by the test group.
(§9) I.W. values for each dosage were calculated by employing regression analysis. The amount of a test compound which is required in reducing the frequency of writhings to the 50% level of that generated by the control group, i.e., B=0.5A or I.W.=50%, is designated as ED50 (mg/kg of a body weight). Therefore, a lower value of ED50 represents a higher analgesic effect of the tested compound.

Data set [2] can be described thus: acetic acid-induced writhing test (analgesic effect). Type of data set: in vivo, KTC-ICR rats. Conditions: Mus musculus. Here is the method:
as §1, §2, §3, §4, §5, §6, §7, §8, §9
In general terms: In writhing tests, fewer writhes than in controls are read as antinociception.

Data set [3] can be described thus: Toxicity test: behavioral changes in the test animals. It is filed as in vivo. Conditions: score; for Convulsion / Salivation / Urination: normal value 0; for Dyspnoea / Ptosis / Sedation / Vasodilation: normal value 4.
The mark [4] stands for this setting: PBQ, dose reducing writhing to 50% of control, read-out: ED50.
The mark [5] stands for this setting: acetic acid, dose reducing writhing to 50% of control, read-out: ED50.

What is called ED50 is the midpoint of the dose-response relation. Turning to `CC(C)Cc1ccc(C(C)C(=O)O)cc1` (centres unmarked) [Ibuprofen], in data set [1] (setting [4]), the ED50 came out at 11 mg/kg.
As to `COc1cc(CC(=O)NCCSc2ccc(C)c(C)c2)ccc1OCCN` [Example 6, N-{2-(3,4-dimethylthiophenoxy)ethyl}-4-(2-aminoethoxy)-3-methoxyphenylacetarnide], the ED50 in data set [2] (setting [5]) stood at 0.48 mg/kg. For the same compound, in data set [3] (0.31 mg/kg), the Convulsion turned out to be 0, the Salivation amounted to 0, the Urination is reported as 0 and the Dyspnoea was 4. For the same compound, in data set [3] (0.31 mg/kg), the Ptosis is recorded as 4, the Sedation is listed as 4 and the Vasodilation turned out to be 4. In data set [3] (0.63 mg/kg), this compound displayed a Convulsion of 0, a Salivation of 0, a Urination of 0 and a Dyspnoea of 4. Also, in data set [3] (0.63 mg/kg), the Ptosis amounted to 5, the Sedation came out at 6 and the Vasodilation is reported as 4. In data set [3] (1.25 mg/kg), the Convulsion is 0, the Salivation is 0, the Urination is 0 and the Dyspnoea is 6. In data set [3] (1.25 mg/kg), the Ptosis amounted to 6, the Sedation was 6 and the Vasodilation worked out at 5.
Turning to `COc1cc(CC(=O)NCCSc2ccc(C)cc2)ccc1OCCN` [Example 5, N-{2-(4-methylthiophenoxy)ethyl}-4-(2-aminoethoxy)-3-methoxyphenylacetamide], the ED50 in data set [2] (setting [5]) was determined as 0.84 mg/kg. In data set [3] (0.63 mg/kg), the Convulsion is on record as 0, the Salivation is recorded as 0, the Urination was found to be 0 and the Dyspnoea was 4. In data set [3] (0.63 mg/kg), this compound yielded a Ptosis of 4, a Sedation of 4 and a Vasodilation of 4. In data set [3] (1.25 mg/kg), this compound gave a Convulsion of 0, a Salivation of 0, a Urination of 0 and a Dyspnoea of 6. Also, in data set [3] (1.25 mg/kg), the Ptosis was 6, the Sedation worked out at 6 and the Vasodilation is given as 4. In data set [3] (2.5 mg/kg), this compound yielded a Convulsion of 0, a Salivation of 0, a Urination of 0 and a Dyspnoea of 6. Besides, in data set [3] (2.5 mg/kg), the Ptosis amounted to 6, the Sedation is recorded as 7 and the Vasodilation is listed as 5.
For the compound `CCCCCCCC/C=C\CCCCCCCC(=O)NCc1ccc(OCCN)c(OC)c1` [NE-21610, reference compound], the ED50 was 38.3 mg/kg in data set [1] (setting [4]) and more than 300 mg/kg in data set [2] (setting [5]).
As for `COc1cc(CC(=O)NCCCc2ccc(C)c(C)c2)ccc1OCCN` [Control, reference compound], in data set [3] (0.25 mg/kg), the Convulsion is recorded as 1, the Salivation came out at 0, the Urination worked out at 0 and the Dyspnoea is recorded as 5. In data set [3] (0.25 mg/kg), the Ptosis is 6, the Sedation is reported as 6 and the Vasodilation stood at 5. In data set [3] (0.5 mg/kg), the Convulsion worked out at 1, the Salivation came to 0, the Urination was determined as 0 and the Dyspnoea stood at 6. In data set [3] (0.5 mg/kg), the Ptosis worked out at 7, the Sedation came to 7 and the Vasodilation stood at 5. In data set [3] (1 mg/kg), the Convulsion stood at 1, the Salivation was 0, the Urination was found to be 0 and the Dyspnoea turned out to be 6. In data set [3] (1 mg/kg), this compound had a Ptosis of 7, a Sedation of 7 and a Vasodilation of 6.
In the case of `COc1cc(CC(=O)NCCOCc2ccc(C)c(C)c2)ccc1OCCN` [Example 3, N-{2-(3,4-dimethylbenzyloxy)ethyl}-4-(2-aminoethoxy)-3-methoxyphenylacetamide], the ED50 in data set [1] (setting [4]) came out at 10.9 mg/kg. In data set [3] (5 mg/kg), the Convulsion was 0, the Salivation was found to be 0, the Urination was found to be 0 and the Dyspnoea was found to be 4. In data set [3] (5 mg/kg), this compound registered a Ptosis of 4, a Sedation of 4 and a Vasodilation of 4. In data set [3] (10 mg/kg), this compound registered a Convulsion of 0, a Salivation of 0, a Urination of 0 and a Dyspnoea of 4. In data set [3] (10 mg/kg), the Ptosis is given as 4, the Sedation amounted to 4 and the Vasodilation stood at 4. In data set [3] (20 mg/kg), the Convulsion turned out to be 0, the Salivation worked out at 0, the Urination was 0 and the Dyspnoea is 4. In data set [3] (20 mg/kg), the Ptosis amounted to 5, the Sedation is reported as 5 and the Vasodilation is 4.
Consider `COc1cc(CC(=O)NCCOc2ccc(C)c(C)c2)ccc1OCCN` [Example 1, N-{2-(3,4-dimethylphenoxy)ethyl}-4-(2-aminoethoxy)-3-methoxyphenylacetamide], for which the ED50 in data set [1] (setting [4]) was determined as 9.53 mg/kg.
As to `COc1cc(CNC(=O)CCCC/C=C/C(C)C)ccc1O` [Capsaicin, N-vanillyl-trans-8-methyl-6-nonenamide, reference compound], the 50% effect level in data set [2] (ED50) was put at a dose of 1.34 mg/kg.
`COc1ccc2cc([C@H](C)C(=O)O)ccc2c1` [Naproxen]: in data set [1] (setting [4]), the ED50 turned out to be 17.1 mg/kg.
`CC(=O)Oc1ccccc1C(=O)O` [Aspirin, acetylsalicylic acid] came in with an ED50 in data set [1] of 71.4 mg/kg.
Take `COc1cc(CC(=O)NCCOCc2ccc(C)c(C)c2)ccc1O` [Example 4, N-{2-(3,4-dimethylbenzyloxy)ethyl}-4-hydroxy-3-methoxyphenylacetamide]: in data set [2] (setting [5]), the 50% effective dose (ED50) is 2.08 mg/kg. In data set [3] (1.25 mg/kg), this compound came in with a Convulsion of 0, a Salivation of 0, a Urination of 0 and a Dyspnoea of 4. In data set [3] (1.25 mg/kg), the Ptosis amounted to 4, the Sedation turned out to be 4 and the Vasodilation is 4. Further, in data set [3] (2.5 mg/kg), the Convulsion is on record as 0, the Salivation turned out to be 0, the Urination amounted to 0 and the Dyspnoea is given as 5. Moreover, in data set [3] (2.5 mg/kg), the Ptosis worked out at 6, the Sedation was 6 and the Vasodilation is recorded as 4. In data set [3] (5 mg/kg), this compound displayed a Convulsion of 0, a Salivation of 0, a Urination of 0 and a Dyspnoea of 6. In data set [3] (5 mg/kg), this compound returned a Ptosis of 7, a Sedation of 7 and a Vasodilation of 5.
As to `CCCCC1C(=O)N(c2ccccc2)N(c2ccccc2)C1=O` [Phenylbutazone], the ED50 in data set [1] (setting [4]) came to 79.8 mg/kg.
Regarding `CCCCCCCC/C=C\CCCCCCCC(=O)NCc1ccc(O)c(OC)c1` [NE-19550, Nvanillyloleamide, reference compound], in data set [2], it took a dose of 15.7 mg/kg to reach the 50% effect level (ED50).
As to `COc1cc(CC(=O)NCCCOc2ccc(C)c(C)c2)ccc1OCCN` [Example 2, N-{3-(3,4-dimethylphenoxy)propyl}-4-(2-aminoethoxy)-3-methoxyphenylacetamide], the ED50 in data set [1] (setting [4]) came out at 7.02 mg/kg. For the same compound, in data set [3] (2.5 mg/kg), the Convulsion is reported as 0, the Salivation came out at 0, the Urination came to 0 and the Dyspnoea was found to be 4. In data set [3] (2.5 mg/kg), the Ptosis is 4, the Sedation is reported as 4 and the Vasodilation came out at 4. In data set [3] (5 mg/kg), the Convulsion was 0, the Salivation came to 0, the Urination turned out to be 0 and the Dyspnoea came to 5. In data set [3] (5 mg/kg), this compound registered a Ptosis of 6, a Sedation of 6 and a Vasodilation of 5. Moreover, in data set [3] (10 mg/kg), the Convulsion was determined as 0, the Salivation is listed as 0, the Urination amounted to 0 and the Dyspnoea is listed as 7. In data set [3] (10 mg/kg), this compound came in with a Ptosis of 6, a Sedation of 7 and a Vasodilation of 6.

The values above are taken from patent publication US5973201A, “Phenylacetamide derivatives” (Korea Research Institute of Chemical Technology, priority 1995, dated 1999).
